Test system: weeds
Test: Glasshouse weed control by HST/HPPD (mesotrione) mixtures, post-emergence
Assay type: in vivo
Settings: post-emergence; for % damage, 1 g ai ha^−1 mesotrione / % damage, no-mesotrione: 14 DAT; for colby: difference to Colby expectation
Method: Weed seeds are planted out in trays containing suitable soil (for example 50% peat, 50% John Innes soil no 3) and grown in the glass house conditions under 24-27° C. day; 18-21° C. night and approximately a 14 h (or longer in UK summer) photoperiod. Humidity is ˜65% and light levels up to 2000 μmol/m^2 at bench level. Trays are sprayed with test chemicals dissolved in water with 0.2-0.25% X-77 surfactant and sprayed from a boom on a suitable track sprayer moving at about 2 mph in a suitable track sprayer (for example a DeVries spray chamber with the nozzle about 2 inches from the plant tops). Spray volume is suitably 500-1000 l/ha. Sprays are carried out both pre-emergence and over small plants at about 7-12 d post-emergence
Plants are assessed 14 DAT and herbicidal damage is scored on a scale from 0 to 100%. The HST inhibitor compound 2.30 (designated compound A in table 16 and 17), haloxydine (compound 1.1) and compound 2.13 (designated compound AE in tables 16 and 17) are sprayed at rates between 0 and 500 g/ha.

[1] = ALOMY, 16 g/ha + 1 g ai/ha mesotrione
[2] = ALOMY, 31 g/ha + 1 g ai/ha mesotrione
[3] = ALOMY, 63 g/ha + 1 g ai/ha mesotrione
[4] = ALOMY, 125 g/ha + 1 g ai/ha mesotrione
[5] = ALOMY, 250 g/ha + 1 g ai/ha mesotrione
[6] = ALOMY, 500 g/ha + 1 g ai/ha mesotrione
[7] = ECHCG, 16 g/ha + 1 g ai/ha mesotrione
[8] = ECHCG, 31 g/ha + 1 g ai/ha mesotrione
[9] = ECHCG, 63 g/ha + 1 g ai/ha mesotrione
[10] = ECHCG, 125 g/ha + 1 g ai/ha mesotrione
[11] = ECHCG, 250 g/ha + 1 g ai/ha mesotrione
[12] = ECHCG, 500 g/ha + 1 g ai/ha mesotrione
[13] = SETFA, 16 g/ha + 1 g ai/ha mesotrione
[14] = SETFA, 31 g/ha + 1 g ai/ha mesotrione
[15] = SETFA, 63 g/ha + 1 g ai/ha mesotrione
[16] = SETFA, 125 g/ha + 1 g ai/ha mesotrione
[17] = SETFA, 250 g/ha + 1 g ai/ha mesotrione
[18] = SETFA, 500 g/ha + 1 g ai/ha mesotrione

CC(C)C(=O)Oc1c(-c2c(F)ccc(Br)c2Cl)c(=O)n(CC(F)F)c2nccnc12 [Compound 2.30]
% damage, 1 g ai ha^−1 mesotrione [1]: 2%
colby [1]: 0
% damage, no-mesotrione (ALOMY, 16 g/ha): 2%
% damage, 1 g ai ha^−1 mesotrione [2]: 3%
colby [2]: 0
% damage, no-mesotrione (ALOMY, 31 g/ha): 3%
% damage, 1 g ai ha^−1 mesotrione [3]: 10%
colby [3]: 5
% damage, no-mesotrione (ALOMY, 63 g/ha): 5%
% damage, 1 g ai ha^−1 mesotrione [4]: 20%
colby [4]: 7
% damage, no-mesotrione (ALOMY, 125 g/ha): 13%
% damage, 1 g ai ha^−1 mesotrione [5]: 22%
colby [5]: 7
% damage, no-mesotrione (ALOMY, 250 g/ha): 15%
% damage, 1 g ai ha^−1 mesotrione [6]: 35%
colby [6]: 12
% damage, no-mesotrione (ALOMY, 500 g/ha): 23%
% damage, 1 g ai ha^−1 mesotrione [7]: 17%
colby [7]: −2
% damage, no-mesotrione (ECHCG, 16 g/ha): 12%
% damage, 1 g ai ha^−1 mesotrione [8]: 38%
colby [8]: 13
% damage, no-mesotrione (ECHCG, 31 g/ha): 18%
% damage, 1 g ai ha^−1 mesotrione [9]: 42%
colby [9]: −5
% damage, no-mesotrione (ECHCG, 63 g/ha): 42%
% damage, 1 g ai ha^−1 mesotrione [10]: 53%
colby [10]: −7
% damage, no-mesotrione (ECHCG, 125 g/ha): 57%
% damage, 1 g ai ha^−1 mesotrione [11]: 68%
colby [11]: 0
% damage, no-mesotrione (ECHCG, 250 g/ha): 65%
% damage, 1 g ai ha^−1 mesotrione [12]: 75%
colby [12]: 6
% damage, no-mesotrione (ECHCG, 500 g/ha): 67%
% damage, 1 g ai ha^−1 mesotrione [13]: 18%
colby [13]: −5
% damage, no-mesotrione (SETFA, 16 g/ha): 23%
% damage, 1 g ai ha^−1 mesotrione [14]: 42%
colby [14]: 10
% damage, no-mesotrione (SETFA, 31 g/ha): 32%
% damage, 1 g ai ha^−1 mesotrione [15]: 42%
colby [15]: 8
% damage, no-mesotrione (SETFA, 63 g/ha): 33%
% damage, 1 g ai ha^−1 mesotrione [16]: 62%
colby [16]: 5
% damage, no-mesotrione (SETFA, 125 g/ha): 57%
% damage, 1 g ai ha^−1 mesotrione [17]: 75%
colby [17]: 10
% damage, no-mesotrione (SETFA, 250 g/ha): 65%
% damage, 1 g ai ha^−1 mesotrione [18]: 75%
colby [18]: 5
% damage, no-mesotrione (SETFA, 500 g/ha): 70%

O=c1c(Cl)c(F)[nH]c(F)c1Cl [Haloxidine]
% damage, 1 g ai ha^−1 mesotrione [1]: 23%
colby [1]: 10
% damage, no-mesotrione (ALOMY, 16 g/ha): 13%
% damage, 1 g ai ha^−1 mesotrione [2]: 33%
colby [2]: 7
% damage, no-mesotrione (ALOMY, 31 g/ha): 27%
% damage, 1 g ai ha^−1 mesotrione [3]: 68%
colby [3]: 15
% damage, no-mesotrione (ALOMY, 63 g/ha): 53%
% damage, 1 g ai ha^−1 mesotrione [4]: 83%
colby [4]: 5
% damage, no-mesotrione (ALOMY, 125 g/ha): 78%
% damage, 1 g ai ha^−1 mesotrione [5]: 92%
colby [5]: 2
% damage, no-mesotrione (ALOMY, 250 g/ha): 90%
% damage, 1 g ai ha^−1 mesotrione [6]: 95%
colby [6]: 0
% damage, no-mesotrione (ALOMY, 500 g/ha): 95%
% damage, 1 g ai ha^−1 mesotrione [7]: 57%
colby [7]: 18
% damage, no-mesotrione (ECHCG, 16 g/ha): 33%
% damage, 1 g ai ha^−1 mesotrione [8]: 67%
colby [8]: 11
% damage, no-mesotrione (ECHCG, 31 g/ha): 52%
% damage, 1 g ai ha^−1 mesotrione [9]: 75%
colby [9]: 15
% damage, no-mesotrione (ECHCG, 63 g/ha): 57%
% damage, 1 g ai ha^−1 mesotrione [10]: 78%
colby [10]: 6
% damage, no-mesotrione (ECHCG, 125 g/ha): 70%
% damage, 1 g ai ha^−1 mesotrione [11]: 97%
colby [11]: 12
% damage, no-mesotrione (ECHCG, 250 g/ha): 83%
% damage, 1 g ai ha^−1 mesotrione [12]: 100%
colby [12]: 2
% damage, no-mesotrione (ECHCG, 500 g/ha): 98%
% damage, 1 g ai ha^−1 mesotrione [13]: 27%
colby [13]: −15
% damage, no-mesotrione (SETFA, 16 g/ha): 42%
% damage, 1 g ai ha^−1 mesotrione [14]: 82%
colby [14]: 13
% damage, no-mesotrione (SETFA, 31 g/ha): 68%
% damage, 1 g ai ha^−1 mesotrione [15]: 92%
colby [15]: 12
% damage, no-mesotrione (SETFA, 63 g/ha): 80%
% damage, 1 g ai ha^−1 mesotrione [16]: 97%
colby [16]: 3
% damage, no-mesotrione (SETFA, 125 g/ha): 93%
% damage, 1 g ai ha^−1 mesotrione [17]: 100%
colby [17]: 0
% damage, no-mesotrione (SETFA, 250 g/ha): 100%
% damage, 1 g ai ha^−1 mesotrione [18]: 100%
colby [18]: 0
% damage, no-mesotrione (SETFA, 500 g/ha): 100%

From patent US20110173718A1, “HERBICIDE TOLERANT PLANTS” (SYNGENTA CROP PROTECTION, INC., priority 2008, published 2011)
